The results in this text go back to US6100237A, “Use of des-Aspartate-angiotensin I as an agent for the treatment and prevention of neointima formation, restenosis, and arteriosclerosis” (National University of Singapore, priority 1997, dated 2000).

No end group written: not given here.

This data set concerns spontaneously hypertensive rat (SHR). Nature of the data set: Chronic development of arteriosclerosis (abdominal aorta morphometry, tail cuff blood pressure), chronic oral administration, SHR. The data set is classed as in vivo, spontaneously hypertensive rats (SHR). Conditions: 0.9 mg/kg/day oral; weight taken at 12, 27 and 47 weeks old (data not shown). On the procedure: Five weeks old WKY and SHR were housed four to a cage. Four SHR and four WKY were orally administered 0.9 mg/kg/day of des-Aspartate-angiotensin I in 0.5 ml of saline daily for 47 weeks. Four SHR and another four WKY served as control animals and were administered 0.5 ml saline solution daily for 47 weeks. The weight of the animals were determined weekly till 12 weeks old, fortnightly till 27 weeks old and monthly till 47 weeks old. The dose of des-Aspartate-angiotensin I was adjusted to match the increase in weight as the animals grew. The dose of 0.9 mg/kg/day was calculated based on the maximum effective oral anti-cardiac hypertrophic dose (250 nmole per rat of average weight of 325 g) in the previous patent.
The blood pressure of the animals was determined by the tail cuff method on the 46th week of treatment. On the 47th week, animals were anaesthetized with chloral hydrate and a 3-cm section (measured from the left renal artery) of the abdominal aorta was removed and fixed in 4% paraformaldehyde and 1% glutaraldehyde. The aorta was processed for paraffin embedment. 10-μ thick sections were prepared and stained with toluidine blue. Fifty such sections, cut from the distal end of the artery, were used for quantitation. The area of the medial smooth muscle cells was quantitated morphometrically as described above. The area was converted to volume by multiplying by 10μ.

For the sequence RVYIHPFHL [des-Aspartate-angiotensin I], the animal weight result is listed as “no significant effect”.
